{"source": "patent US20220133679A1", "about": "“EFFLUX INHIBITOR COMPOSITIONS AND METHODS OF TREATMENT USING THE SAME” (Izumi Technology, LLC, priority 2012, published 2022)", "key": {"in vitro": {"assay": "in vitro", "assay_type": "in vitro ADME", "settings": "dog, MDCK", "description": "(§1) An in vitro permeability assay using the MDCK cell line was performed to investigate the ability of elacridar to cross cellular membranes. […] Specifically, non-transduced MDCK cells, expressing only basal amounts of endogenous ABC-transporters, were seeded in the apical compartments of a 24 mm Transwell plate (3.0 μm Pore Polycarbonate Membrane Inserts) and incubated at 37° C. and 5.0% CO2 conditions until confluency was reached. Both apical-to-basolateral and basolateral-to-apical transport was analyzed in triplicate. To each donor compartment, 2 ml of Minimal Essential Medium (supplemented with 20% Fetal Bovine Serum) containing 1 μM elacridar and 50 nCi/ml (1.85 kBq/ml)^14C-inulin was added, while each acceptor compartment was filled with 2 ml blank Minimal Essential Medium (supplemented with 20% Fetal Bovine Serum). Samples of 100 μl were taken from each acceptor compartment at t=5 min, 30 min, 1 h, 2 h and 4 h as well as from all donor solutions for HPLC-MS/MS analysis of elacridar.\n(§2) Samples for HPLC-MS/MS analysis were prepared as follows. Samples (50 μl) were pipetted into a 2 ml eppendorf vial and the internal standard (IS) solution (1 μM of elacridar-d4) in Minimal Essential Medium (supplemented with 20% Fetal Bovine Serum) and 1 ml of diethyl ether were added. […] An aliquot of 75 μl was subjected to HPLC-MS/MS using the conditions and set-up as described above for elacridar.\n(§3) Leakage of the transwell membrane, as indicated by ^14C-inulin accumulation in the acceptor compartment, was analyzed in 10 μl samples from all time points as well as donor solutions. To each sample, 3 ml of Ultima Gold solution was added and vials were mixed thoroughly prior to radioactivity analysis using a Liquid Scintillation Counter."}, "MDCK cell monolayer": {"test_system": "MDCK cell monolayer", "assay": "in vitro", "assay_type": "in vitro ADME", "settings": "dog, 1 μM", "description": "as §1, §2, §3"}, "[1]": {"parameters": "species or system female Sprague-Dawley rats", "settings": "rat, in vivo, 100 mg/kg", "description": "Studies were conducted in female Sprague-Dawley rats. […] The selected 100 mg/kg dose is well above the level where nonlinear pharmacokinetics have been documented. Ten animals were used at weekly intervals between each dosing to allow washout of the drug from the previous dosing.\nElacridar suspension formulation was prepared by weighing 100.03 mg of elacridar, which was first suspended in 5 ml of water, followed by 5 ml of vehicle solution (2.5% w/v of hydroxypropyl methyl cellulose (HPMC) and 2% v/v of Tween 80). This suspension was stirred for about 2.5 hours prior to dosing. The final concentration was 10 mg/ml. This suspension was given at 10 μl per gram body weight to achieve a dose level of 100 mg/kg\nElacridar nanoparticle (NP) suspensions were used as received, except for a final 5-fold dilution step to obtain a NP suspension of 10 mg/ml of elacridar.\nThere were three study groups: 1) Elacridar Suspension (n=4); 2) Elacridar TPGS nanoparticles (n=5); and 3) Elacridar Poloxamer nanoparticles (n=5). All animals received elacridar orally by gavage under light isoflurane anesthesia. The animals were fasted for a period of 3 h before drug administration. Food pellets were returned to the cages after the 4 h sampling point. Blood samples from the tail vein at: 15, 30 min, 1, 2, 4, 7, 24, 30 and 48 hours. Samples were kept on ice and centrifuged within 2 h to separate plasma. Plasma was stored at −20° C.\nFormulation for i.v. administration was prepared by weighing 61.12 mg of elacridar and dissolving this in 2.056 ml of DMSO. The final concentration was 30 mg/ml. Animals (n=4) received […] per gram body weight (5 mg/kg). Blood samples were taken from the tail vein at: 5, 15, 30 min, 1, 2, 4, 7, 24, 30 and 48 h. Samples were kept on ice and centrifuged within 2 h to separate plasma. Plasma was stored at −20° C.\nSamples were pre-treated as follows. […] 1000 μl of diethyl ether was added."}}}
{"smiles": "COc1cc2c(cc1OC)CN(CCc1ccc(NC(=O)c3cccc4c(=O)c5cccc(OC)c5[nH]c34)cc1)CC2", "note": "[elacridar]", "values": [{"measurement": "Papp A→B at 4 h, 1 μM", "setting": "in vitro", "value": 112, "unit": "nm/s"}, {"measurement": "Papp B→A at 4 h, 1 μM", "setting": "in vitro", "value": 109, "unit": "nm/s"}, {"measurement": "amount of elacridar at the receptor side relative to drug content at the donor side", "setting": "MDCK cell monolayer", "value": "about 6%"}, {"measurement": "tolerability of dosing", "setting": "[1]", "value": "tolerated these doses of elacridar without any problem"}]}
